# Experimental data reported in publication PMC6338836, “Structural basis for prodrug recognition by the SLC15 family of proton-coupled peptide transporters” (Proceedings of the National Academy of Sciences of the …, 2019).
# Residues, ends and D or L forms follow the SMILES beside them.
# What was measured:
# (UniProt Z9YNX0M2M8) = assay: IC50 competition assay, PepTSh WT proteoliposomes; format: biochemical, Staphylococcus hominis; conditions: competition for dipeptide uptake
# PepTSh N167A = assay: IC50 competition assay, PepTSh N167A variant; format: biochemical, Staphylococcus hominis
# PepT1 = test system: PepT1; design: method as in PMID 12649372; conditions: cited from earlier work
# PepTSh = assay: IC50 competition assay, PepTSh WT proteoliposomes; format: biochemical, Staphylococcus hominis; conditions: for recognition: competition with AlaAla: N- or C-terminally blocked peptides
# PepTSh Y41F = assay: IC50 competition assay, PepTSh Y41F variant; format: biochemical, Staphylococcus hominis; conditions: for IC50: PepTSh variant Y41F
# PepTSh Y79F = assay: IC50 competition assay, PepTSh Y79F variant; format: biochemical, Staphylococcus hominis
# [1] = design: method as in PMID 23264448, PMID 9610386; conditions: cited from earlier work
# PepTSh Y41A = assay: IC50 competition assay, PepTSh Y41A variant; format: biochemical, Staphylococcus hominis; conditions: PepTSh Y41 removed (Y41A)
# PepTSh Y163A = assay: IC50 competition assay, PepTSh Y163A variant; format: biochemical, Staphylococcus hominis; conditions: PepTSh Y163 removed (Y163A)
# PepTSh N426A = assay: IC50 competition assay, PepTSh N426A variant; format: biochemical, Staphylococcus hominis; conditions: PepTSh N426 removed (N426A)
# PepTSh N426L = assay: IC50 competition assay, PepTSh N426L variant; format: biochemical, Staphylococcus hominis; conditions: PepTSh N426 replaced with leucine (N426L)
smiles,measurement,setting,value
NCC(=O)CCC(=O)O [5-aminolevulinic acid],IC50,(UniProt Z9YNX0M2M8),10.4 mM
same,effect of variant on affinity / IC50 compared with WT,PepTSh N167A,unchanged
same,IC50,PepT1,2.1 mM
CC(=O)N[C@@H](C)C(=O)N[C@@H](C)C(=O)O [Ac-AA-OH] (Ac-Ala-Ala-OH),recognition: competition with AlaAla,PepTSh,can no longer bind the
"C[C@H](N)C(=O)N[C@@H](C)C(=O)O [Ala-Ala, dialanine] (H-Ala-Ala-OH)",IC50,PepTSh Y41F,0.866 mM
same,effect of variant on transport compared with WT,PepTSh Y79F; PepTSh Y79F,limited effect
"C[C@H](N)C(=O)N[C@@H](C)C(=O)N[C@@H](C)C(=O)O [Ala-Ala-Ala, trialanine]",effect of variant on IC50 compared with WT,PepTSh Y41F; PepTSh Y41F,no effect
same,IC50,PepTSh Y79F; PepTSh variant Y79F,5.3 µM
C[C@H](N)C(=O)N[C@@H](C)C(N)=O [H-AA-NH2] (H-Ala-Ala-NH2),recognition: competition with AlaAla,PepTSh,can compete with AlaAla
Nc1nc2c(ncn2COCCO)c(=O)[nH]1 [acyclovir],oral bioavailability,[1],15%
CC(C)[C@H](N)C(=O)OCCOCn1cnc2c(=O)[nH]c(N)nc21 [valacyclovir],IC50,PepTSh; competition for dipeptide uptake,7.4 mM
same,effect of variant on affinity compared with WT,PepTSh Y41A,little effect on the affinity
same,IC50,PepTSh Y41F,1.3 mM
same,effect of variant on recognition,PepTSh Y163A,abrogated valacyclovir recognition
same,effect of variant on affinity / IC50 compared with WT,PepTSh N167A,little effect on the affinity
same,effect of variant on affinity compared with WT,PepTSh N426A,improved affinity
same,effect of variant on affinity compared with WT,PepTSh N426L,negligible effect
same,oral bioavailability,[1],> 50%
